How the values were obtained:
[1] = Extraction of phenol from 1% aqueous solution with high boiling solvents alone and with TOPO (Example 3, Table III); format: physicochemical; settings: 24° C., 10 minutes
Procedure: A number of high boiling solvents, which would allow recovery of the extracted phenol without the necessity of distilling the solvent, were evaluted and the distribution coefficient calculated for the solvent alone and containing 133 g/l of TOPO. The aqueous solution extracted contained 1% phenol, which was contacted with the solvent or solvent plus TOPO for 10 minutes at 24° C.

[2] = Concentration of TOPO obtainable in the extraction solution; format: physicochemical
Excerpt: It is advantageous in solvent extraction to maximize the loading of the extracted compound in the organic phase. This also permits a higher ratio of aqueous phase to organic phase (A/O) in the extraction process, that is, a greater volume of aqueous solution treated per volume of organic extractant. It is therefore desirable to maximize the concentration of phosphine oxide in the extraction solution. With TOPO, solutions containing in excess of 30% by weight are readily obtained.

[3] = Water solubility of the solvents
[4] = solvent + TOPO 133 g/l (head: TOPA), A/O = 0.5
[5] = solvent + TOPO 133 g/l, A/O = 1

| TOPO concentration of solutions readily obtained [2] [% by weight] | Compound | C aq. Final (phenol) [1, 4] [ppm] | C aq. Final (phenol) [1, 5] [ppm] | C aq. Final (phenol) ([1]; solvent alone, A/O = 1) [ppm] | water solubility [3] |
| --- | --- | --- | --- | --- | --- |
|  | CC(=O)CC(C)C [Methyl isobutyl ketone, reference compound] | 24 | 43 | 130 |  |
|  | CC(C)OC(C)C [Diisopropyl ether, diisopropyl ether, reference compound] |  |  | 419 |  |
| > 30 | CCCCCCCCP(=O)(CCCCCCCC)CCCCCCCC [TOPO, tri-n-octylphosphine oxide] |  |  |  |  |
|  | O=C(c1ccccc1)c1ccccc1 [Benzophenone] | 37 | 85 |  |  |
|  | CC(C)CC(=O)CC(C)C [DIBK, diisobutylketone, reference compound] | 26 | 60 | 285 |  |
|  | c1ccc(Oc2ccccc2)cc1 [Diphenyl ether] | 23 | 55 | 3075 |  |
|  | CCCCCCCCCCCCCO [Tridecanol] | 128 | 515 | 531 |  |
|  | Diisopropyl naphthalene | 18 | 46 | 5590 | negligible water solubility |
|  | c1ccc(Cc2ccccc2)cc1 [Diphenyl methane] | 21 | 59 |  |  |
|  | Isopropyl naphthalene | 18 | 45 | 4690 | negligible water solubility |

From US4420643A, “Extraction of phenols from aqueous solutions” (priority 1982, dated 1983)
